Values of other authors, collected in publication PMC3266668 (Frontiers in Pharmacology, 2012).

Columns and labels:
[1] = system: patients after myocardial infarction; settings: ref Echt et al., [1991]
[2] = system: isolated left ventricular wedge preparations; settings: ref Lu et al., [2010]
[3] = system: isolated rabbit hearts; settings: ref Lu et al., [2010]

QRS interval effect [2]	ventricular tachycardia [2]	QRS interval effect [3]	ventricular tachycardia [3]	SMILES	mortality in CAST treatment arms [1]
–	–	–	–	COc1ccc(C(=O)Nc2ccccc2CCC2CCCCN2C)cc1 (stereo not drawn) [encainide]	increased mortality due to arrhythmias
–	–	–	–	O=C(NCC1CCCCN1)c1cc(OCC(F)(F)F)ccc1OCC(F)(F)F (stereo not drawn) [flecainide]	increased mortality due to arrhythmias
only slightly increased QRS duration	without inducing ventricular tachycardia	small increase in QRS duration	did not induce ventricular tachycardia	CCN(CC)CC(=O)Nc1c(C)cccc1C [lidocaine]	–
